This note sets out measurements from ChEMBL document CHEMBL4725489, “Synthesis, Characterization, and In Silico Studies of Novel Spirooxindole Derivatives as Ecto-5'-Nucleotidase Inhibitors” (ACS Med Chem Lett, 2020).

pIC50: −log10 of the molar value. Active and inactive are the calls of the source. The calls are words filed in the database; no cut-off is given here.

As a reminder, the pIC50 is −log10 of the IC50, conventionally taken in molar units. By inhibition is commonly meant how much of the control response was suppressed.

For assay [1], the target named is T1, 5'-nucleotidase (Homo sapiens, UniProt P21589). The assay can be described thus: Inhibition of recombinant human ecto-5' nucleotidase expressed in COS7 cell membranes assessed as inorganic phosphate release using AMP as substrate preincubated for 10 mins followed by substrate addition and measured after 20 mins by malachite green dye based spectrophotometry.
Target sequence in this assay (P21589 whole entry): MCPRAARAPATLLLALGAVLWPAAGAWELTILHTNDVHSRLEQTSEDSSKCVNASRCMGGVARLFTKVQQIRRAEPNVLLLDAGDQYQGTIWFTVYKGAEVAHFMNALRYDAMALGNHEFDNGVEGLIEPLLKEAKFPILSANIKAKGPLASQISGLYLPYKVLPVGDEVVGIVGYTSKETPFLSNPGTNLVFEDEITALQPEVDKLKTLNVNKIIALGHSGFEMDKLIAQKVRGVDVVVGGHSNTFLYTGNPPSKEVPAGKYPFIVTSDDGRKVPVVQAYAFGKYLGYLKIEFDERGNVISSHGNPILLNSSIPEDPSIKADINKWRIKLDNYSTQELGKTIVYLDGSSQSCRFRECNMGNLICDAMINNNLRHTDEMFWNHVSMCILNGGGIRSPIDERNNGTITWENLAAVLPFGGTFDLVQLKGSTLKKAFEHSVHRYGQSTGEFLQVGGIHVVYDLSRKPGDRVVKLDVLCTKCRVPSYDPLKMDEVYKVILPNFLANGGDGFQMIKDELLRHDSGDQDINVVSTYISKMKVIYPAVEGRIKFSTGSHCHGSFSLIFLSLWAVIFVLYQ

Assay [2] concerns the target T2, 5'-nucleotidase (Rattus norvegicus, UniProt P21588).
T2 sequence (P21588 whole entry): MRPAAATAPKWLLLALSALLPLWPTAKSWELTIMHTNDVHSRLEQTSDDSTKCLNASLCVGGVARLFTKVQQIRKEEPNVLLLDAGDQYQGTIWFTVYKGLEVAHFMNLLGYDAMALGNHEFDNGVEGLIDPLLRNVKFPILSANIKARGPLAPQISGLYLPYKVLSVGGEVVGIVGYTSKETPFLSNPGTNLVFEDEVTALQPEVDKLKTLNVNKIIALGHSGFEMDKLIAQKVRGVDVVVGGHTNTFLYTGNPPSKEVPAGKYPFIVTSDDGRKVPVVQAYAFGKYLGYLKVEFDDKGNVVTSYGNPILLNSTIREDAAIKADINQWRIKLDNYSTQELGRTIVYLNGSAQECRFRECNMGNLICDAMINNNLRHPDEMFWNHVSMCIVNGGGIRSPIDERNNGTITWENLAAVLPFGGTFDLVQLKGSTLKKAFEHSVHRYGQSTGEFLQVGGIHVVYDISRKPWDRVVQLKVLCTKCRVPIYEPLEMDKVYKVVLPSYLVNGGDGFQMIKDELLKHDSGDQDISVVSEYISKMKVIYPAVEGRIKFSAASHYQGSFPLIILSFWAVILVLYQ
The assay can be described thus: Inhibition of recombinant rat ecto-5' nucleotidase expressed in COS7 cell membranes assessed as inorganic phosphate release using AMP as substrate uM preincubated for 10 mins followed by substrate addition and measured after 20 mins by malachite green dye based spectrophotometry.

In assay [3] the target is T1, 5'-nucleotidase. The assay can be described thus: Inhibition of recombinant human ecto-5' nucleotidase expressed in COS7 cell membranes assessed as inorganic phosphate release using AMP as substrate at 100 uM preincubated for 10 mins followed by substrate addition and measured after 20 mins by malachite green dye based spectrophotometry relative to control.
Target sequence in this assay (P21589 whole entry): as the sequence (P21589 whole entry) above
Assay [4] has as its target T3, 5'-nucleotidase (Rattus norvegicus) (UniProt P21588).
T3 sequence (whole entry): T2 sequence (P21588 whole entry)
The assay can be described thus: Inhibition of recombinant rat ecto-5' nucleotidase expressed in COS7 cell membranes assessed as inorganic phosphate release using AMP as substrate at 100 uM preincubated for 10 mins followed by substrate addition and measured after 20 mins by malachite green dye based spectrophotometry relative to control.

The target in assay [5] is T3, 5'-nucleotidase (Rattus norvegicus). The experiment in a line: Uncompetitive inhibition of rat ecto-5' nucleotidase assessed as increase in Km with constant Vmax at 0 to 0.6 uM by Lineweaver-Burk plot analysis. The following applies: dose microM 0-0.6.
Assay [6] is described as follows: Selectivity index, ratio of IC50 for recombinant rat ecto-5' nucleotidase expressed in COS7 cell membranes to IC50 for recombinant human ecto-5' nucleotidase expressed in COS7 cell membranes. In kind it is cell-based.
The target of assay [7] is T1, 5'-nucleotidase. The assay can be described thus: Noncompetitive inhibition of human ecto-5' nucleotidase assessed as increase in Km with constant Vmax at 0 to 0.6 uM by Lineweaver-Burk plot analysis. As to conditions: dose microM 0-0.6.
Target sequence in this assay (P21589 whole entry): as the sequence (P21589 whole entry) above
The target in assay [8] is T1, 5'-nucleotidase. The assay can be described thus: Potency index, ratio of sulfamic acid IC50 to compound IC50 for human ecto-5' nucleotidase expressed in COS7 cell membranes assessed as inorganic phosphate release using AMP as substrate preincubated for 10 mins followed by substrate addition and measured after 20 mins by malachite green dye based ….
Target sequence in this assay (P21589 whole entry, looked up): as the sequence (P21589 whole entry) above
The target in assay [9] is T1, 5'-nucleotidase. The experiment in a line: Inhibition of recombinant human ecto-5' nucleotidase expressed in COS7 cell membranes using AMP as substrate preincubated for 10 mins followed by substrate addition and measured after 20 mins by capillary electrophoresis method.
Target sequence in this assay (P21589 whole entry): as the sequence (P21589 whole entry) above

As for `Cc1[nH]nc2c1C1(C(=O)N(C)c3ccc(OC(F)(F)F)cc31)C(C#N)=C(N)N2` (centres undefined), the figures for the pIC50 at 5'-nucleotidase [1] and on 5'-nucleotidase [2] were 6.74 and 5.45, respectively.
For the compound `CN1C(=O)C2(C(C#N)=C(N)Nc3n[nH]cc32)c2cc(Cl)ccc21` (centres undefined), the inhibition at 5'-nucleotidase [3] amounted to 39.7%. For the same compound, the negative-log IC50 (pIC50) on 5'-nucleotidase [2] is 6.17.
For the compound `Cc1[nH]nc2c1C1(C(=O)N(C)c3ccc([N+](=O)[O-])cc31)C(C#N)=C(N)N2` (centres undefined), the inhibition turned out to be 34.3% on 5'-nucleotidase [3] and 45.1% in [4].
In the case of `N#CC1=C(N)Nc2n[nH]cc2C12C(=O)Nc1ccccc12` (centres undefined), the figures for the inhibition (at 5'-nucleotidase [3]; in assay [4]) were 27.6% and 41.7%, respectively.
For the compound `Cc1[nH]nc2c1C1(C(=O)N(C)c3ccccc31)C(C#N)=C(N)N2` (centres undefined), the inhibition at 5'-nucleotidase [3] was 36.6%. In addition, the inhibition result in [5] is “Active”. Besides, the pIC50 on 5'-nucleotidase [2] is 6.72.
In the case of `Cc1[nH]nc2c1C1(C(=O)N(C)c3ccc(F)cc31)C(C#N)=C(N)N2` (centres undefined), the pIC50 was 6.59 at 5'-nucleotidase [1] and 5.30 at 5'-nucleotidase [2].
With `Cc1[nH]nc2c1C1(C(=O)Nc3ccccc31)C(C#N)=C(N)N2` (centres undefined), the results for the inhibition (on 5'-nucleotidase [3]; in assay [4]) were 33% and 36.5%, respectively.
On to `CN1C(=O)C2(C(C#N)=C(N)Nc3n[nH]cc32)c2cc(F)ccc21` (centres undefined), for which the values for the pIC50 at 5'-nucleotidase [1] and at 5'-nucleotidase [2] were 6.34 and 5.10, respectively. The Ratio IC50 in assay [6] was 17.3.
For `Cc1[nH]nc2c1C1(C(=O)N(C)c3ccc(Cl)cc31)C(C#N)=C(N)N2` (centres undefined), the inhibition on 5'-nucleotidase [3] amounted to 33%. On 5'-nucleotidase [2], the pIC50 was 5.81.
With `CN1C(=O)C2(C(C#N)=C(N)Nc3n[nH]cc32)c2cc(OC(F)(F)F)ccc21` (centres undefined), the values for the pIC50 on 5'-nucleotidase [1] and on 5'-nucleotidase [2] were 6.82 and 6.28, respectively. Moreover, the inhibition result at 5'-nucleotidase [7] was “Active”. Moreover, on 5'-nucleotidase [8], the Ratio IC50 turned out to be 280.
On to `CN1C(=O)C2(C(C#N)=C(N)Nc3n[nH]cc32)c2ccccc21` (centres undefined), for which, in assay [4], the inhibition worked out at 41%. For the same compound, the negative-log IC50 (pIC50) on 5'-nucleotidase [1] was 6.16.
With `Cc1ccc(-n2nc(C)c3cc(Cl)c(-c4cc(C)ccc4O)nc32)cc1`, the negative logarithm of the IC50 (pIC50) at 5'-nucleotidase [9] is 6.49.
`CN1C(=O)C2(C(C#N)=C(N)Nc3n[nH]cc32)c2cc([N+](=O)[O-])ccc21` (centres undefined): on 5'-nucleotidase [3], the inhibition came to 38%. The negative logarithm of the IC50 (pIC50) at 5'-nucleotidase [2] was 5.67.
